From patent US20160376240A1, “6 Phenyl or 6 Pyridin 3 YL Indazole Derivatives and Methods of Use” (ABBVIE INC., priority 2014, published 2016) come the findings set out here.

For one assay, the target named is T1, TrkA (Homo sapiens, UniProt P04629).
T1 construct: purchased Invitrogen PV3144
Kind of assay: TrkA kinase inhibition, HTRF assay. The format is biochemical. Conditions: LCK peptide substrate 125 nM, TrkA 2-10 nM pre-incubated with ATP 200 μM. In a few lines:
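TrkA (2-10 nM) preactivated 20 min with 200 μM ATP in HEPES pH 7.4 with Mg2+/Mn2+, then compound for 10 min, then 125 nM biotinylated LCK-peptide for 1 h at ambient temperature. HTRF 665/620 ratio read; IC50 fitted from initial-rate percent inhibition.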

In assay [1] the test system is rat model of mono-iodoacetic acid induced osteoarthritis pain. The experiment in a line: Osteoarthritis pain model, hind limb grip force in MIA-treated rats. The class given is in vivo. Conditions: mean percent effect, ***p<0.001 vs vehicle-treated animals. Here is the method: Members of the TrkA inhibitors described above were tested and found effective in reducing osteoarthritis pain. The compounds tested were assessed in an in vivo model well known to those skilled in the art, the rat model of mono-iodoacetic acid induced osteoarthritis pain. A general review of various models of pain can be found in Joshi and Honore, Expert Opinion in Drug Discovery (2004) 1, pp. 323-334, and in the book ‘Drug Discovery and Evaluation, 2nd edition (H. Gerhard Vogel, editor; Springer-Verlag, New York, 2002; pp. 702-706).
Pain behavior was assessed by measurement of hind limb grip force (GF) in adult osteoarthritic rats. Male Sprague Dawley rats, generally weighing 125-150 g, were injected in the unilateral knee join with a single intra-articular injection of sodium monoiodoacetate (MIA). Rats were tested at 21-28 days following MIA injection. A behavioral measure of activity-induced pain was carried out. Measurements of the peak hind limb grip force were conducted by recording the maximum compressive force (CFmax), in grams of force, exerted on a hind limb strain gauge setup, in a commercially available grip force measurement system (Columbus Instruments, Columbus, Ohio).
During testing, each rat was gently restrained by grasping it around its rib cage and then allowed to grasp the wire mesh frame attached to the strain gauge. The experimenter then moved the animal in a rostral-to-caudal direction until the grip was broken. Each rat was sequentially tested twice at an approximately 2-3 minute interval to obtain a raw mean grip force (CFmax). This raw mean grip force data was in turn converted to a maximum hindlimb cumulative compressive force (CFmax), as the grams of force/kg of body weight, for each animal.
For evaluating the compound effects, the hind limb grip force testing in the MIA-treated rats was conducted generally 30-60 minutes after dosing with the test compound. A group of age-matched nave (not injected with MIA) animals was added as a comparator to the drug-dosed groups. The vehicle control response for each group of MIA-treated animals was defined as the 0% response (0% effect), whereas the nave control group was defined as the normal response and as 100% effect. The % effect=(Treatment CFmax−Vehicle CFmax)/Vehicle CFmax]×100). Higher % effect numbers indicate increased relief from the pain in the model, with 100% indicating a return to the level of response seen in normal (non-osteoarthritic) animals. All experiments evaluating drug effects in this model were conducted in a randomized blinded fashion.
Male Sprague Dawley rats (generally 250-300 g body weight at the time of testing) obtained from Charles River Laboratories (Wilmington, Mass.) were used for all experiments, unless indicated otherwise. […]

The target in the next assay is T2, TrkC (Homo sapiens, UniProt Q16288).
T2 construct: purchased Invitrogen PV3617
The experiment in a line: TrkC kinase inhibition, HTRF assay. The class given is biochemical. Conditions: LCK peptide substrate, assay ATP concentration targeted 5 μM. The protocol:
(§1) TrkA, TrkB, and TrkC enzymes were obtained from Invitrogen (as catalog numbers PV3144, PV3616, and PV3617, respectively). The ability of a compound to inhibit the enzymatic activity of the TrkA, TrkB, and TrkC enzymes was determined in separate assays. Enzyme activity was measured in an HTRF® (homogeneous time resolved fluorescence) assay, which detects enzymatic phosphorylation of a biotinylated synthetic peptide substrate (an LCK peptide analog, biotin-ahx-GAEEEIYAAFFA, from Genemed Synthesis). Phosphorylation is assessed by HTRF® in the presence of an anti-phosphotyrosine antibody conjugated to Eu^3+ cryptate (Cisbio) as donor fluorophore, and streptavidin conjugated to allophycocyanin (ProZyme) as acceptor fluorophore. The HTRF® signal was detected at two different wavelengths (620 nm and 665 nm) which were used to calculate the fluorescence ratio.
(§2) Each enzyme was titrated to a concentration optimized to ensure accurate measurement of the initial reaction rate. To allow the Trk enzymes to undergo activation and auto-phosphorylation, a 20 minute pre-incubation with ATP was carried out (at twice the final targeted enzyme and ATP concentration) prior to addition of test compound and the peptide substrate.
(§3) TrkA in vitro assays were performed by pre-incubating TrkA (2-10 nM) with ATP (200 μM) for 20 minutes at ambient temperature in 50 mM HEPES pH 7.4, 10 mM MgCl2, 2 mM MnCl2, 100 μM Na3VO4, 1 mM dithiothreitol, 0.01% BSA (bovine serum albumin). Then, to the activated Trk enzyme mixture was added the test compound in 2% dimethyl sulfoxide. After 10 minutes, the peptide substrate (125 nM) was added. After 1 hour, enzyme reactions were terminated by addition of equal reaction volumes of detection/stop reagent (containing 0.2 μg/mL anti-phosphotyrosine monoclonal antibody labeled with europium from Cisbio (catalog# PT66-K), and 4 μg/mL PhycoLink® Streptavidin-Allophycocyanin conjugate from ProZyme (catalog# PJ25S) in 60 mM EDTA in 40 mM HEPES pH 7.4, 480 mM KF, 0.01% Tween® 20 and 0.1% BSA bovine serum albumin) Reaction plates were stored at 4° C. overnight before reading the fluorescence ratio signal on a PerkinElmer EnVision™ fluorescence detector. Individual reaction wells were stopped at time points to obtain reaction rates. The test inhibitor compounds were assayed in duplicate, at half-log serial dilutions over a range of concentrations (e.g. starting at 50 μM or 5 μM as the high compound concentration). The percent Trk enzyme inhibition was calculated from the initial rates of the inhibited reactions relative to the uninhibited control. IC50 values were calculated by fitting the inhibition percent to the concentration of inhibitor [I] in the assay in equation 1 below, to solve for the IC50.
(§4) Inhibition %=100[I]/([I]+[IC50]) equation 1
(§5) The TrkB and TrkC in vitro assays were performed as described above, except that for these enzymes the assay ATP concentration targeted was 5 μM.
(In general: In TR-FRET formats the signal depends on donor and acceptor labels being close together.)

In another assay the target is T3, TrkB (Homo sapiens, UniProt Q16620).
T3 construct: purchased Invitrogen PV3616
The experiment in a line: TrkB kinase inhibition, HTRF assay. The class given is biochemical. Conditions: LCK peptide substrate, assay ATP concentration targeted 5 μM. The protocol: as §1, §2, §3, §4, §5

T2 sequence (Q16288 32-839): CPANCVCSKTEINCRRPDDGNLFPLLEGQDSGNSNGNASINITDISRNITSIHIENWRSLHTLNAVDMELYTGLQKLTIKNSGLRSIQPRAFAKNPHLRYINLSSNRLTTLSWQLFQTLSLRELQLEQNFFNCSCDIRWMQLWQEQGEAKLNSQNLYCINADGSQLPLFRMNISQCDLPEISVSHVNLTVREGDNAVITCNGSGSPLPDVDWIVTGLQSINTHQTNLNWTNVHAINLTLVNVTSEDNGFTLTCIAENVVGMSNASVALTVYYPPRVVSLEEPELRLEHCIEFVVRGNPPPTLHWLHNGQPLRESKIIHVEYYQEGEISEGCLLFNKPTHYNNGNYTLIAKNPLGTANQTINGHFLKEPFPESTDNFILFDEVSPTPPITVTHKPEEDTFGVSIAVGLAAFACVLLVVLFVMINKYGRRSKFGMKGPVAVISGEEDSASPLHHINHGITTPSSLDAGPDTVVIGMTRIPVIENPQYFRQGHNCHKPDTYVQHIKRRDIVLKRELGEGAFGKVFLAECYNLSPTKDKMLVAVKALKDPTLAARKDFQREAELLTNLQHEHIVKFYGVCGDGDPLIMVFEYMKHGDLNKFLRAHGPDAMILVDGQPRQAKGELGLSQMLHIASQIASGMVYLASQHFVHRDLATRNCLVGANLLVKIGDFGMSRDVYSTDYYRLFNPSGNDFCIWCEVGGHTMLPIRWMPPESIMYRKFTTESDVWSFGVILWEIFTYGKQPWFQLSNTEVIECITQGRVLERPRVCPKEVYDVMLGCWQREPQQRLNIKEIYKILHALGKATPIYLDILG
T1 sequence (P04629 33-796): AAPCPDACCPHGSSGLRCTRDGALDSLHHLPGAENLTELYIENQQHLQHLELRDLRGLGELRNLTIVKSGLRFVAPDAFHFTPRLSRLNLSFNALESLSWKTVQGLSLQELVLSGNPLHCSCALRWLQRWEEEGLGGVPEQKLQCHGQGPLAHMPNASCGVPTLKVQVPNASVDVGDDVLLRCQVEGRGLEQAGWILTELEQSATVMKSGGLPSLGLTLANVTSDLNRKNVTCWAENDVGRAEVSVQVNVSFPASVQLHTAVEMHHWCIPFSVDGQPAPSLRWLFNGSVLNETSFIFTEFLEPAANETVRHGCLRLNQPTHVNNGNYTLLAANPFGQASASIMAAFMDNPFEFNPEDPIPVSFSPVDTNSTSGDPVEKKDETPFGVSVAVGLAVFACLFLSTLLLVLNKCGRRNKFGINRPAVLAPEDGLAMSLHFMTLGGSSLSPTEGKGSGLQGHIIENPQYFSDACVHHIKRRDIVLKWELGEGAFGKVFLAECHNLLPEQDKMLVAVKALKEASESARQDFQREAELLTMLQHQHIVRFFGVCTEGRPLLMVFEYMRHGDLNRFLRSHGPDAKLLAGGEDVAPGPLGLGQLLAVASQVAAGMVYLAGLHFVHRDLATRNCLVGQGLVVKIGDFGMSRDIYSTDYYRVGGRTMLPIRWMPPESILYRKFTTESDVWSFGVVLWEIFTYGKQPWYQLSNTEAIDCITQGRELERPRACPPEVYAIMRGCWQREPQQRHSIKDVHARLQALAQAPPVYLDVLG
T3 sequence (Q16620 32-822): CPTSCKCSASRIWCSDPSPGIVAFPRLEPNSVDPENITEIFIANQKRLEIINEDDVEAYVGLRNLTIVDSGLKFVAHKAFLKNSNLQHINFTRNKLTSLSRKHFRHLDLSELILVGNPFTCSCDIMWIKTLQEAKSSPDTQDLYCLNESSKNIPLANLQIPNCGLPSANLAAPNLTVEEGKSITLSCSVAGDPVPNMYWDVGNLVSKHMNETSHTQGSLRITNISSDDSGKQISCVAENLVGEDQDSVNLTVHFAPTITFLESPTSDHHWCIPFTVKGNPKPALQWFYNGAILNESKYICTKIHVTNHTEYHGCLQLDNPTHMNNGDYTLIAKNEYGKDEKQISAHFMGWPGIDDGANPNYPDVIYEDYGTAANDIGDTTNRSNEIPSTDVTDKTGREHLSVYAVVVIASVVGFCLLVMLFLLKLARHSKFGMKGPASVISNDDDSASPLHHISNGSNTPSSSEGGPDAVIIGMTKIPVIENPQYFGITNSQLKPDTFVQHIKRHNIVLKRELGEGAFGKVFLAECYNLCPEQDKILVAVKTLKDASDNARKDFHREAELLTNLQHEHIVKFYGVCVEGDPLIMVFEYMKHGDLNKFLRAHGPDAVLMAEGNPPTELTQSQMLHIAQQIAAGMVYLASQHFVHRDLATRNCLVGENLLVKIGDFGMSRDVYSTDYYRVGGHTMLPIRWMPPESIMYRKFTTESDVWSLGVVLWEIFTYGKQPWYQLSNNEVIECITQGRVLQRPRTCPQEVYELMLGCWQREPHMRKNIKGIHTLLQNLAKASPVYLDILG

Take `CNC(=O)c1ccc(-c2cc(OC3CCOCC3)c3c(N)n[nH]c3c2)cc1N1CCN(c2ncc(F)cn2)CC1` [Example 113, 4-[3-amino-4-(tetrahydro-2H-pyran-4-yloxy)-1H-indazol-6-yl]-2-[4-(5-fluoropyrimidin-2-yl)piperazin-1-yl]-N-methylbenzamide]: on TrkA, the IC50 was determined as 4.74 nM. For the same molecule, the “% Effect” value in assay [1] (dose 30 mg/kg p.o.) came out at 89%***.

`CNC(=O)c1ccc(-c2cc(OC3CCOCC3)c3c(C)n[nH]c3c2)cc1N1CCN(C(=O)OC(C)C)CC1` [Example 125, isopropyl 4-{2-(methylcarbamoyl)-5-[3-methyl-4-(tetrahydro-2H-pyran-4-yloxy)-1H-indazol-6-yl]phenyl}piperazine-1-carboxylate]: the IC50 at TrkA is 7.98 nM; against TrkC, 5.11 nM; against TrkB, 3.2 nM. Also, in assay [1] (dose 30 mg/kg p.o.), the “% Effect” value is reported as 85%***.

Consider `CNC(=O)c1ccc(-c2cc(O[C@H](C)C(F)(F)F)c3c(N)n[nH]c3c2)cc1N1CCN(C2CCCCC2)CC1` [Example 56, 4-(3-amino-4-{[(2R)-1,1,1-trifluoropropan-2-yl]oxy}-1H-indazol-6-yl)-2-(4-cyclohexylpiperazin-1-yl)-N-methylbenzamide], for which the IC50 came out at 80 nM against TrkA, 37.1 nM on TrkC and 27.8 nM against TrkB.

As to `CC(=O)N1CCN(c2cc(-c3cc(OC4CCCC4)c4c(N)n[nH]c4c3)ccc2C(N)=O)CC1` [Example 77, 2-(4-acetylpiperazin-1-yl)-4-[3-amino-4-(cyclopentyloxy)-1H-indazol-6-yl]benzamide], the IC50 against TrkA amounted to 51.1 nM; at TrkC it was 158 nM; at TrkB, 84.4 nM.

Consider `CC(=O)Nc1ccc(-c2cc(OC3CCOCC3)c3c(C)n[nH]c3c2)cc1OCCOc1ccccc1` [Example 130, N-{4-[3-methyl-4-(tetrahydro-2H-pyran-4-yloxy)-1H-indazol-6-yl]-2-(2-phenoxyethoxy)phenyl}acetamide], for which the IC50 against TrkA was 13.7 nM; against TrkC it was 1.5 nM; against TrkB it was 1.5 nM.

With `CNC(=O)c1ccc(-c2cc(OC3CCOCC3)c3c(N)n[nH]c3c2)cc1N1CCN(c2ccccc2)CC1` [Example 30, 4-[3-amino-4-(tetrahydro-2H-pyran-4-yloxy)-1H-indazol-6-yl]-N-methyl-2-(4-phenylpiperazin-1-yl)benzamide], the IC50 at TrkA turned out to be 10.4 nM; against TrkC it was 1.5 nM; on TrkB, 1.5 nM.

Take `NC(=O)c1ccc(-c2cc(OC3CCCC3)c3c(N)n[nH]c3c2)cc1N1CCN(c2ccccc2)CC1` [Example 71, 4-[3-amino-4-(cyclopentyloxy)-1H-indazol-6-yl]-2-(4-phenylpiperazin-1-yl)benzamide]: the IC50 against TrkA is 4.92 nM; against TrkC, 1.67 nM; against TrkB, 1.5 nM.

For `CNC(=O)c1ccc(-c2cc(OC3CCOCC3)c3c(N)n[nH]c3c2)cc1N1CCN(C2CCCCC2)CC1` [Example 29, 4-[3-amino-4-(tetrahydro-2H-pyran-4-yloxy)-1H-indazol-6-yl]-2-(4-cyclohexylpiperazin-1-yl)-N-methylbenzamide], the results for the IC50 against TrkA, against TrkC and against TrkB were 97.9 nM, 55.9 nM and 46 nM, respectively. Moreover, the “% Effect” value in assay [1] (dose 100 mg/kg p.o.) was found to be 77%***.

On to `CC(C)(C)OC(=O)N1CCN(c2cc(-c3cc(OC4CCCC4)c4c(N)n[nH]c4c3)ccc2C(N)=O)CC1` [Example 73, tert-butyl 4-{5-[3-amino-4-(cyclopentyloxy)-1H-indazol-6-yl]-2-carbamoylphenyl}piperazine-1-carboxylate], for which the values for the 50% inhibitory concentration (IC50) against TrkA, at TrkC and against TrkB were 13.7 nM, 3.53 nM and 3.17 nM, respectively.

In the case of `CNC(=O)c1ccc(-c2cc(OC3CCOCC3)c3c(N)n[nH]c3c2)cc1N1CCN(CC(F)(F)F)CC1` [Example 108, 4-[3-amino-4-(tetrahydro-2H-pyran-4-yloxy)-1H-indazol-6-yl]-N-methyl-2-[4-(2,2,2-trifluoroethyl)piperazin-1-yl]benzamide], the concentration for half-maximal inhibition (IC50) against TrkA was found to be 30.5 nM; against TrkC, 52.2 nM; against TrkB, 41.3 nM. Moreover, the “% Effect” value in assay [1] (dose 30 mg/kg p.o.) turned out to be 73%***.

`NC(=O)c1ccc(-c2cc(OC3CCOCC3)c3c(N)n[nH]c3c2)cc1N1CCN(c2cccnc2)CC1` [Example 2, 4-[3-amino-4-(tetrahydro-2H-pyran-4-yloxy)-1H-indazol-6-yl]-2-[4-(pyridin-3-yl)piperazin-1-yl]benzamide]: the IC50 against TrkA amounted to 7.4 nM; on TrkC, 3.85 nM; at TrkB, 3.09 nM.

In the case of `CC(C)N1CCN(c2cc(-c3cc(OC(C)C(F)(F)F)c4c(N)n[nH]c4c3)ccc2C(N)=O)CC1` (centres unmarked) [Example 101, 4-{3-amino-4-[(1,1,1-trifluoropropan-2-yl)oxy]-1H-indazol-6-yl}-2-(4-isopropylpiperazin-1-yl)benzamide], the IC50 at TrkA is 377 nM; on TrkC it was 305 nM; on TrkB it was 317 nM.

In the case of `CNC(=O)c1ccc(-c2cc(OC(C)C(F)(F)F)c3c(N)n[nH]c3c2)cc1N1CCN(C2CC2)CC1` (centres unmarked) [Example 34, 4-{3-amino-4-[(1,1,1-trifluoropropan-2-yl)oxy]-1H-indazol-6-yl}-2-(4-cyclopropylpiperazin-1-yl)-N-methylbenzamide], the concentration for half-maximal inhibition (IC50) against TrkA was 318 nM; at TrkC, 318 nM; on TrkB, 330 nM.

As to `NC(=O)c1ccc(-c2cc(OC3CCCC3)c3c(N)n[nH]c3c2)cc1N1CCN(C2CCCCC2)CC1` [Example 74, 4-[3-amino-4-(cyclopentyloxy)-1H-indazol-6-yl]-2-(4-cyclohexylpiperazin-1-yl)benzamide], the IC50 on TrkA stood at 19 nM; against TrkC, 8.32 nM; against TrkB, 3.89 nM.

By IC50 is commonly meant the concentration at which inhibition is half-maximal. Low values mean greater potency in that assay, high ones weaker potency in that assay.
